Like-named read-outs stand apart in the source and are kept apart here.
Key:
MDA-MB-231 tumors = settings: iv, 0.5 mg/kg
Procedure: (§1) Female athymic nu/nu mice (Harlan Laboratories Models, S. L. Barcelona, Spain or Envigo, Spain) were utilized for all experiments. Animal were housed in individually ventilated cages Sealsafe® Plus, Techniplast S.P.A.), up to ten per cage on a 12-hour light-dark cycle at 21-23° C. and 40-60% humidity. […] Animals were acclimated for at least 5 days prior to tumor implantation with a tumor cell suspension.
MDA-MB-231 cells were maintained in vitro at 37° C. with 5% CO2 in Dulbecco's Modified Eagle's Medium (Sigma-Aldrich, Co). Culture cells were passaged every 3 to 5 days upon reaching confluence.
(§2) Treatment tolerability was assessed by monitoring body weight evolution, clinical signs of systemic toxicity, as well as evidences of local damage in the injection site.
In xenograft studies with other cell lines: • Tumor volume was calculated using the equation (a·b^2)/2, where a: length (longest diameter) and b: width (shortest diameter) were measured in mm by using digital caliper (Fowler Sylvac, S235PAT).
(§3) Treatments producing >20% lethality and/or 20% net body weight loss were considered toxic.

H460 tumors = settings: iv, 0.5 mg/kg
Procedure: as §1
H460 cells were maintained in vitro at 37° C. with 5% CO2 in Dulbecco's Modified Eagle's Medium (Sigma-Aldrich, Co). Culture cells were passaged every 3 to 5 days upon reaching confluence. Each animal was subcutaneously implanted (on the right flank using 26 G needle and a 1 cc syringe) at 4-6 weeks of age with 5×10^6 H460 cells suspended in 0.05 mL of a solution consisting of 50% Matrigel® (Corning Incorporated Life Sciences) and 50% medium without serum or antibiotics.
as §2, §3

P388 lymphoma = settings: cited from earlier work
B16 melanoma = settings: cited from earlier work
Lewis lung carcinoma = settings: cited from earlier work
H82 tumors = test: In vivo xenograft, human lung (SCLC) H82; settings: iv weekly, 32 and ET-736 0.5 mg/Kg
HT1080 tumors = test: In vivo xenograft, human fibrosarcoma HT1080; settings: iv weekly, 32 and ET-736 0.5 mg/Kg
Procedure: as §1
HT1080 cells were maintained in vitro at 37° C. with 5% CO2 in Minimum Essential Medium Eagle (MEME) (Sigma-Aldrich, Co). Each animal was orthotopically implanted into gastroecnemius muscle by an intramuscular injection using a 26 G needle and a 1 cc syringe at 4-6 weeks of age, with 10×10^6 HT1080 cells, suspended in serum free medium, without antibiotics.
as §2
In xenograft studies with HT1080 cell line: • Total diameter (tumor+leg) measurements were determined by using digital caliper (Fowler Sylvac, S235PAT).
as §3

For `COc1c(C)cc2c(c1O)[C@@H]1[C@@H]3[C@@H]4SC[C@]5(NCCc6c5[nH]c5ccccc65)C(=O)OC[C@@H](c5c6c(c(C)c(OC(C)=O)c54)OCO6)N3[C@@H](O)[C@H](C2)N1C` [ET-736, Ecteinascidin 736], the “Median Tumor Volume” value (MDA-MB-231 tumors; 0 h) was 150.0 mm^3, the “Median Tumor Volume” value (MDA-MB-231 tumors; 48 h) was 237.7 mm^3 and the “Median Tumor Volume” value (MDA-MB-231 tumors; 120 h) was 302.1 mm^3. For the same compound, the “Median Tumor Volume” value (MDA-MB-231 tumors; 168 h) was 364.9 mm^3, the “Median Tumor Volume” value (MDA-MB-231 tumors; 336 h) was 398.3 mm^3 and the “Median Tumor Volume” value (MDA-MB-231 tumors; 384 h) was 447.2 mm^3. For the same compound, the “Median Tumor Volume” value (MDA-MB-231 tumors; 456 h) was 485.0 mm^3, the “Median Tumor Volume” value (MDA-MB-231 tumors; 504 h) was 536.3 mm^3 and the “Median Tumor Volume” value (MDA-MB-231 tumors; 552 h) was 669.8 mm^3. The “Median Tumor Volume” value (MDA-MB-231 tumors; 672 h) was 1046.1 mm^3, the “Median Tumor Volume” value (MDA-MB-231 tumors; 720 h) was 1315.9 mm^3 and the “Median Tumor Volume” value (MDA-MB-231 tumors; 840 h) was 2007.7 mm^3. The “Median Tumor Volume” value (H460 tumors; 0 h) was 185.8 mm^3, the “Median Tumor Volume” value (H460 tumors; 48 h) was 457.8 mm^3 and the “Median Tumor Volume” value (H460 tumors; 120 h) was 732.8 mm^3. For the same compound, the “Median Tumor Volume” value (H460 tumors; 168 h) was 930.1 mm^3, the “Median Tumor Volume” value (H460 tumors; 336 h) was 1845.5 mm^3 and the “Median Tumor Volume” value (H460 tumors; 384 h) was 2025.0 mm^3. For the same compound, the “protection of mice in vivo” value (P388 lymphoma) was “protects mice in vivo at very low concentrations”, the “protection of mice in vivo” value (B16 melanoma) was “protects mice in vivo at very low concentrations” and the “protection of mice in vivo” value (Lewis lung carcinoma) was “protects mice in vivo at very low concentrations”. For the same compound, the “Median Tumor Volume” value (H82 tumors; Table 64, Day 0) was 170.0 mm^3, the “Median Tumor Volume” value (H82 tumors; Table 64, Day 2) was 334.4 mm^3 and the “Median Tumor Volume” value (H82 tumors; Table 64, Day 5) was 539.4 mm^3. The “Median Tumor Volume” value (H82 tumors; Table 64, Day 7) was 836.4 mm^3, the “Median Tumor Volume” value (H82 tumors; Table 64, Day 9) was 1013.1 mm^3 and the “Median Tumor Volume” value (H82 tumors; Table 64, Day 12) was 1290.9 mm^3. The “Median Tumor Volume” value (H82 tumors; Table 64, Day 14) was 1648.0 mm^3, the “Total diameter (tumor + leg)” value (HT1080 tumors; Table 60, Day 2) was 8.3 mm and the “Total diameter (tumor + leg)” value (HT1080 tumors; Table 60, Day 5) was 7.1 mm. The “Total diameter (tumor + leg)” value (HT1080 tumors; Table 60, Day 7) was 7.6 mm, the “Total diameter (tumor + leg)” value (HT1080 tumors; Table 60, Day 9) was 7.4 mm and the “Total diameter (tumor + leg)” value (HT1080 tumors; Table 60, Day 12) was 7.0 mm. For the same compound, the “Total diameter (tumor + leg)” value (HT1080 tumors; Table 60, Day 14) was 7.1 mm, the “Total diameter (tumor + leg)” value (HT1080 tumors; Table 60, Day 16) was 7.4 mm and the “Total diameter (tumor + leg)” value (HT1080 tumors; Table 60, Day 19) was 8.4 mm. The “Total diameter (tumor + leg)” value (HT1080 tumors; Table 60, Day 21) was 8.6 mm, the “Total diameter (tumor + leg)” value (HT1080 tumors; Table 60, Day 23) was 10.0 mm and the “Total diameter (tumor + leg)” value (HT1080 tumors; Table 60, Day 27) was 10.9 mm. For the same compound, the “Total diameter (tumor + leg)” value (HT1080 tumors; Table 60, Day 30) was 13.2 mm, the “Total diameter (tumor + leg)” value (HT1080 tumors; Table 60, Day 33) was 14.3 mm and the “Total diameter (tumor + leg)” value (HT1080 tumors; Table 60, Day 35) was 15.2 mm. For the same compound, the “Total diameter (tumor + leg)” value (HT1080 tumors; Table 60, Day 37) was 15.8 mm, the “Total diameter (tumor + leg)” value (HT1080 tumors; Table 60, Day 40) was 16.6 mm and the “Total diameter (tumor + leg)” value (HT1080 tumors; Table 60, Day 42) was 18.0 mm.
